Holding throughout (type): biochemical
The target of assay [1] is α-glucosidase. The assay is described as follows: in vitro enzyme inhibition assay (Pistia-Brueggeman method). The following applies: read-out: The in vitro median inhibitory concentrations (IC50 ± SE) (μM) / Anti-diabetic activity ^a / α-glucosidase.
Assay [2] deals with α-amylase. The assay is described as follows: in vitro enzyme inhibition assay (Wickramaratne method). The note with it: read-out: The in vitro median inhibitory concentrations (IC50 ± SE) (μM) / Anti-diabetic activity ^a / α-amylase.
The target of assay [3] is acetylcholinesterase (AChE) (Homo sapiens, UniProt P22303). The assay is described as follows: Ellman's method, single-concentration percent inhibition.
acetylcholinesterase (AChE), sequence (P22303 32-614): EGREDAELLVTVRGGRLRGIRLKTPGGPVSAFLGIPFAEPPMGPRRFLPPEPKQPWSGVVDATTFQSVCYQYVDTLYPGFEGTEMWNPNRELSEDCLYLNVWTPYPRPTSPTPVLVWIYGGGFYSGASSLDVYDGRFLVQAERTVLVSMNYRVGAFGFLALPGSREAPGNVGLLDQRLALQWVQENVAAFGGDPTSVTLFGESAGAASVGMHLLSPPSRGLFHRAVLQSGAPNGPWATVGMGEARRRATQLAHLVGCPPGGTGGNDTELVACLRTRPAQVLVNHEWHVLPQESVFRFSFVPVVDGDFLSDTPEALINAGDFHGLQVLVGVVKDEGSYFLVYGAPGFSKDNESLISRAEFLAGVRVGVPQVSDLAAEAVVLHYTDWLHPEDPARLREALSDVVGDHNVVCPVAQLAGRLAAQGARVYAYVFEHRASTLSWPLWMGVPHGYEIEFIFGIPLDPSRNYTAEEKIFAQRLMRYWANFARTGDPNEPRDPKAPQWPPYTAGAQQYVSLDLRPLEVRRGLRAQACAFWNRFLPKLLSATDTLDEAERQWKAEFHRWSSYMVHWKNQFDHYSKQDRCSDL

With `C=CCNc1nnc2c(N3CCCC3)nc3ccc(S(=O)(=O)N4CCCC4)cc3n12` [10a, N-Allyl-4-(pyrrolidin-1-yl)-8-(pyrrolidin-1-ylsulfonyl)-[1,2,4]triazolo[4,3-a]quinoxalin-1-amine], the IC50 worked out at 3.46 ± 0.06 µM in assay [1] and 6.89 ± 0.09 µM in assay [2].
With `Cc1nnc2c(N3CCCC3)nc3cc(S(=O)(=O)N4CCCC4)ccc3n12` [11b, 1-Methyl-4-(pyrrolidin-1-yl)-7-(pyrrolidin-1-ylsulfonyl)-[1,2,4]triazolo[4,3-a]quinoxaline], the “The in vitro inhibitory percentage (IP ± SE) of the designed two isomers sulfonamide quinoxaline derivatives at 100 μM / Anti-Alzheimer activity ^a / AChE” value in assay [3] came out at 44.78 ± 0.01.

The values above are taken from publication PMC12134304, “Exploring novel of 1,2,4-triazolo[4,3-a]quinoxaline sulfonamide regioisomers as anti-diabetic and anti-Alzheimer agents with in-silico molecular docking simulation” (Scientific Reports, 2025).
